Tests used:
[1] = target: T1, KAT5 (Homo sapiens, UniProt Q92993); test: KAT5 enzyme inhibition assay (SAMDI mass spectrometry); type: biochemical; details: His-TEV-FL KAT5-Flag enzyme construct
T1 construct: His-TEV tag (N, cleaved yes); made in house

[2] = target: T2, KAT6A (Homo sapiens, UniProt Q92794); test: KAT6A enzyme inhibition assay (SAMDI mass spectrometry); type: biochemical; details: His-TEV-KAT6A 501-784 enzyme construct
T2 construct: His-TEV tag (N, cleaved yes); made in house
T2 sequence (Q92794 with tags, fused parts or gaps): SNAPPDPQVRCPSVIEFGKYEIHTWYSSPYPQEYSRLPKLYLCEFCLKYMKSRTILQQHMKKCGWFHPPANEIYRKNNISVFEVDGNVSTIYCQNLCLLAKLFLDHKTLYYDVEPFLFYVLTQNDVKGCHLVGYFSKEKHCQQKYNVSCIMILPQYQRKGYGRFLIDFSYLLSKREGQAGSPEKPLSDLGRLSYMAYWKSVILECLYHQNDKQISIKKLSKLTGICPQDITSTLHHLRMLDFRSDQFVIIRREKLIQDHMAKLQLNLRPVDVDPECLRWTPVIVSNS

T1 sequence (Q92993 with tags, fused parts or gaps): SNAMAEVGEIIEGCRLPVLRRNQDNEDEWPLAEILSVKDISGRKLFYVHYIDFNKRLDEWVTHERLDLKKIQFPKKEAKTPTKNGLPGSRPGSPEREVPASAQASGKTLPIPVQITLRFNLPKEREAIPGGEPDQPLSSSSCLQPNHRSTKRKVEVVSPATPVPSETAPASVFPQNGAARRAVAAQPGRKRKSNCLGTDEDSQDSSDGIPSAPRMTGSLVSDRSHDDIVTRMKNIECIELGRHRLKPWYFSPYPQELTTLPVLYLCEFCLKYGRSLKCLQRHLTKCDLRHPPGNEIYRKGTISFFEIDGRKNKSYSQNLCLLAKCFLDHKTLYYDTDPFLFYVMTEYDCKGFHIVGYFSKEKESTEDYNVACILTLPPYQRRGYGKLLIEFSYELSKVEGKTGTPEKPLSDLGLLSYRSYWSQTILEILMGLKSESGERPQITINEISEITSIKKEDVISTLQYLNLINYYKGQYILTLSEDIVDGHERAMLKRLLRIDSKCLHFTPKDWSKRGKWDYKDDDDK

| Compound | IC50 [1] [µM] | IC50 [2] [µM] |
| --- | --- | --- |
| COCCOc1cccc(-c2cc(C)c(F)c(C(=O)NNS(=O)(=O)CC3CCCCC3)c2)c1 [Compound I-270] | ≤ 10 | 10 to 50 |
| Cc1cc(-c2ccccc2)cc(C(=O)N(C)NS(=O)(=O)c2ccccc2)c1F [Compound I-215] | > 100 | 10 to 50 |
| Cc1cc(-c2ccccc2F)cc(C(=O)NNS(=O)(=O)CC2CCCCC2)c1F [Compound I-269] | ≤ 10 | 10 to 50 |
| Cc1cc(-c2cccc(OCCN(C)C)c2)cc(C(=O)NNS(=O)(=O)C2CCCCC2)c1F [Compound I-403] | > 100 | > 100 |
| O=C(NNS(=O)(=O)c1cccc(F)c1)c1cc(-c2ccccc2)ccc1F [Compound I-154] | 10 to 50 | ≤ 10 |
| O=C(NNS(=O)(=O)c1ccccc1)c1cnn(Cc2ccccc2)c1 [Compound I-230] | > 100 | > 100 |
| Cc1c(-c2ccccc2)ccc(F)c1C(=O)NNS(=O)(=O)c1ccc2ccccc2c1 [Compound I-240] | 10 to 50 | 10 to 50 |
| COCCNC(=O)c1cccc(-c2cc(C)c(F)c(C(=O)NNS(=O)(=O)CC3CCCCC3)c2)c1 [Compound I-447] | ≤ 10 | 10 to 50 |
| Cc1cc(-c2ccccc2)cc(C(=O)NNS(=O)(=O)C(C)C2CCCNC2)c1F (centres unmarked) [Compound I-314] | > 100 | > 100 |
| Cc1cc(-c2ccccc2)cc(C(=O)NNS(=O)(=O)C2CC3CCC(C2)N3)c1F (centres unmarked) [Compound I-184] | > 100 | > 100 |
| COCC(=O)N1CCCC(CS(=O)(=O)NNC(=O)c2cc(-c3cccc(F)c3)cc(C)c2F)C1 (centres unmarked) [Compound I-289] | ≤ 10 | ≤ 10 |
| CCNC(=O)c1cc(Cl)c(F)c(C(=O)NNS(=O)(=O)C2CCOCC2)c1 [Compound I-492] | > 100 | > 100 |
| COc1ccc(CS(=O)(=O)NNC(=O)c2cc(-c3ccccc3)cc(C)c2F)cc1 [Compound I-81] | 50 to 100 | 10 to 50 |
| O=C(NNS(=O)(=O)CC1CCCNC1)c1cc(-c2ccccc2)cc(Cl)c1F (centres unmarked) [Compound I-410] | 10 to 50 | 10 to 50 |
| Cc1nn(CC(=O)NCCN(C)C)c(C(=O)NNS(=O)(=O)C2CCCCC2)c1F [Compound I-502] | > 100 | > 100 |
| COCCC(=O)N1CCC(S(=O)(=O)NNC(=O)c2cc(-c3ccccc3)cc(C)c2F)C1 (centres unmarked) [Compound I-106] | 10 to 50 | 10 to 50 |
| Cc1cc(-c2cccc(C(=O)OCc3ccccc3)c2)cc(C(=O)NNS(=O)(=O)CC2CCCCC2)c1F [Compound I-446] | 10 to 50 | 50 to 100 |
| Cc1cc(-c2cccc(F)c2)cc(C(=O)NNS(=O)(=O)C2CCOCC2)c1F [Compound I-377] | ≤ 10 | ≤ 10 |
| O=C(NNS(=O)(=O)C1CCCCC1)c1cc(-c2ccc(O)cc2)cc(Cl)c1F [Compound I-460] | ≤ 10 | 10 to 50 |
| Cc1cc(-c2ccccc2)cc(C(=O)NNS(=O)(=O)CC2CCCN(CCO)C2)c1F (centres unmarked) [Compound I-339] | 10 to 50 | 10 to 50 |
| O=C(NNS(=O)(=O)c1ccccc1)c1cccc(-c2ccccc2)c1 [Compound I-144] | > 100 | ≤ 10 |
| Cc1cc(-c2cccc(F)c2)cc(C(=O)NNS(=O)(=O)c2ccccc2)c1F [Compound I-371] | ≤ 10 | ≤ 10 |
| Cc1cc(-c2ccccc2)cc(C(=O)NNS(=O)(=O)c2cccc(F)c2)c1F [Compound I-214] | ≤ 10 | ≤ 10 |

| Compound | IC50 [1] [µM] | IC50 [2] [µM] |
| --- | --- | --- |
| O=C(NNS(=O)(=O)C1CCCCC1)c1c(F)ccc(-c2ccccc2)c1Cl [Compound I-312] | > 100 | > 100 |
| CCC(=O)N1CCC(S(=O)(=O)NNC(=O)c2cc(-c3ccccc3)cc(C)c2F)C1 (centres unmarked) [Compound I-104] | 50 to 100 | 10 to 50 |
| O=S(=O)(NNc1n[nH]c2ccccc12)c1ccccc1 [Compound I-44] | > 100 | > 100 |
| Cc1cc(-c2ccccc2)cc(C(=O)NCc2noc3ccccc23)c1F [Compound I-368] | 50 to 100 | 50 to 100 |
| CC(=O)N1CCCC(CS(=O)(=O)NNC(=O)c2cc(-c3cccc(F)c3)cc(C)c2F)C1 (centres unmarked) [Compound I-330] | ≤ 10 | ≤ 10 |
| O=S(=O)(NNc1n[nH]c2cccc(F)c12)c1ccccc1 [Compound I-45] | > 100 | > 100 |
| COCCNC(=O)c1cccc(-c2cc(C)c(F)c(C(=O)N(N)S(=O)(=O)c3ccccc3)c2)c1 [Compound I-477] | > 100 | > 100 |
| Cc1cccc(S(=O)(=O)NNC(=O)c2cccc(-c3ccccc3)c2F)c1 [Compound I-226] | > 100 | ≤ 10 |
| COc1cc(Cl)c(F)c(C(=O)NNS(=O)(=O)C2CCOCC2)c1 [Compound I-430] | 50 to 100 | > 100 |
| O=C(NNS(=O)(=O)C1CCOCC1)c1cc(Cn2cccn2)cc(Cl)c1F [Compound I-464] | > 100 | > 100 |
| Cc1cc(-c2ccccc2)cc(C(=O)NNS(=O)(=O)C2CCN(C(=O)c3ccccc3)C2)c1F (centres unmarked) [Compound I-32] | 10 to 50 | ≤ 10 |
| CC(=O)N1CCCC(CS(=O)(=O)NNC(=O)c2cc(-c3ccccc3)cc(C)c2F)C1 (centres unmarked) [Compound I-322] | ≤ 10 | ≤ 10 |
| Cc1cc(-c2ccccc2)cc(C(=O)NNS(=O)(=O)CC2CCCN(C(=O)C(C)C)C2)c1F (centres unmarked) [Compound I-369] | ≤ 10 | ≤ 10 |
| O=C(NNS(=O)(=O)c1cccc(-c2ccccc2)c1)C1CCCCC1 [Compound I-522] | > 100 | > 100 |
| CCS(=O)(=O)NNC(=O)c1c(F)ccc(-c2ccccc2)c1C [Compound I-228] | > 100 | > 100 |
| Nc1ncc(-c2ccc(-c3ccccc3)cc2F)n1S(=O)(=O)c1ccccc1 [Compound I-284] | > 100 | > 100 |
| O=C(NNS(=O)(=O)c1cccc(Cl)c1)c1c(F)ccc(Cl)c1F [Compound I-198] | 50 to 100 | ≤ 10 |
| Cc1c(-c2ccccc2)ccc(F)c1C(=O)NNS(=O)(=O)CC1CCCCC1 [Compound I-258] | 50 to 100 | 50 to 100 |
| O=C(NNS(=O)(=O)c1cccc(Cl)c1)c1c(F)ccc(-c2ncc[nH]2)c1F [Compound I-170] | > 100 | 50 to 100 |
| Cc1cc(-c2ccccc2)c(F)c(C(=O)NNS(=O)(=O)c2ccccc2)c1F [Compound I-223] | ≤ 10 | ≤ 10 |
| O=C(NN[S+]([O-])c1ccccc1)c1ccccc1F (centres unmarked) [Compound I-133] | > 100 | > 100 |
| Cc1cc(-c2ccccc2)cc(C(=O)NNS(=O)(=O)c2cccnc2)c1F [Compound I-175] | ≤ 10 | ≤ 10 |
| CCN(C)C(=O)N1CCC(CS(=O)(=O)NNC(=O)c2cc(-c3cccc(C)c3)cc(Cl)c2F)C1 (centres unmarked) [Compound I-519] | ≤ 10 | ≤ 10 |

| Compound | IC50 [1] [µM] | IC50 [2] [µM] |
| --- | --- | --- |
| O=C(NNS(=O)(=O)c1ccccc1)c1ccccc1Cl [Compound I-149] | > 100 | > 100 |
| Cc1cc(-c2cccc(Cl)c2)cc(C(=O)NNS(=O)(=O)CC2CCCCC2)c1F [Compound I-342] | 50 to 100 | 50 to 100 |
| Cc1cc(-c2ccccc2)cc(C(=O)NNS(=O)(=O)C(C)C2CCCCC2)c1F (centres unmarked) [Compound I-385] | ≤ 10 | ≤ 10 |
| CCC(=O)N1CCCC(CS(=O)(=O)NNC(=O)c2cc(-c3ccccc3)cc(C)c2F)C1 (centres unmarked) [Compound I-280] | ≤ 10 | ≤ 10 |
| CNC(=O)CCNC(=O)c1cc(Cl)c(F)c(C(=O)NNS(=O)(=O)C2CCOCC2)c1 [Compound I-493] | > 100 | > 100 |
| O=C(NNS(=O)(=O)c1ccc2ccccc2c1)c1c(F)ccc(-c2ccccc2)c1F [Compound I-164] | ≤ 10 | ≤ 10 |
| Cc1cccc(S(=O)(=O)NNC(=O)c2cc(-c3ccccc3)ccc2F)c1 [Compound I-131] | > 100 | ≤ 10 |
| Cc1cc(-c2ccccc2)nc(C(=O)NNS(=O)(=O)C2CCCCC2)c1F [Compound I-483] | 50 to 100 | > 100 |
| COCc1cc(Cl)c(F)c(C(=O)NNS(=O)(=O)C2CCCCC2)c1 [Compound I-451] | ≤ 10 | 10 to 50 |
| Cc1cc(-c2ccccc2)cc(C(=O)NNS(=O)(=O)CC2CCCN(C(=O)OC(C)(C)C)C2)c1F (centres unmarked) [Compound I-352] | ≤ 10 | ≤ 10 |
| CNCCC(=O)N1CCCC(CS(=O)(=O)NNC(=O)c2cc(-c3cccc(F)c3)cc(C)c2F)C1 (centres unmarked) [Compound I-328] | 10 to 50 | 10 to 50 |
| Cc1c(-c2ccccc2)ccc(F)c1C(=O)NNS(=O)(=O)C(C)C [Compound I-231] | > 100 | > 100 |
| COc1cc(Cl)c(F)c(C(=O)NNS(=O)(=O)C2CCCCC2)c1 [Compound I-393] | ≤ 10 | > 100 |
| COCCN1CCC(CS(=O)(=O)NNC(=O)c2cc(-c3ccccc3)cc(C)c2F)CC1 [Compound I-507] | ≤ 10 | ≤ 10 |
| O=S(=O)(Nc1ncc(-c2ccccc2F)[nH]1)c1ccccc1 [Compound I-65] | > 100 | > 100 |
| O=C(NNS(=O)(=O)c1ccccc1)c1cc(-c2ccccc2)cc2cc[nH]c12 [Compound I-14] | 10 to 50 | 10 to 50 |
| COCCN1CCCC(CS(=O)(=O)NNC(=O)c2cc(-c3ccccc3)cc(C)c2F)C1 (centres unmarked) [Compound I-297] | 10 to 50 | ≤ 10 |
| COCCN(C)C(=O)c1cc(Cl)c(F)c(C(=O)NNS(=O)(=O)C2CCOCC2)c1 [Compound I-471] | > 100 | > 100 |
| COCC(=O)N1CCCC(CS(=O)(=O)NNC(=O)c2cc(-c3cccc(F)c3)cc(Cl)c2F)C1 (centres unmarked) [Compound I-418] | ≤ 10 | ≤ 10 |
| Cn1nc(NNS(=O)(=O)c2ccccc2)c2cc(-c3ccccc3)ccc21 [Compound I-47] | > 100 | > 100 |
| Cc1cccc(C(=O)NNS(=O)(=O)C2CNC2)c1F [Compound I-203] | > 100 | > 100 |

Source: patent US20220267260A1, “COMPOUNDS CONTAINING A SULFONIC GROUP AS KAT INHIBITORS” (Epizyme, Inc., priority 2016, published 2022)
